The values that follow come from patent US12376589B2, “Chryseobacterium insect inhibitory microbial compositions and methods of making and using” (priority 2021, dated 2025).

The test system of one assay is Aedes aegypti larvae. The assay is described as follows: whole plant or invertebrate. To be noted: Aedes aegypti. The text has this: (§1) Measuring potency of 3,3-diindolylmethane and 3-((1H-indol-2-yl)methyl)-1H-indole. 3,3′-Diindolylmethane (also called arundine, CAS number: 1968-05-4) was purchased from MILLIPORESIGMA (cat #74601) and Cayman Chemical (catalog #15927). 3-((1H-indol-2-yl)methyl)-1H-indole (CAS number: 114648-66-7) was purchased from Ambeed (catalog #A735658). Compounds were resuspended in dimethyl sulfoxide (DMSO). For collecting data to construct dose curves for 3,3-diindolylmethane and 3-((1H-indol-2-yl)methyl)-1H-indole, a series of twenty 1:2 dilutions was made to test in bioassays, establish a dose curve, and determine the LC50 value.
(§2) Aedes aegypti bioassays with compounds. Assays were performed using second or third instar larvae, with biological replication. Larvae were washed with sterile water before transfer to 24-well assay plates containing 1 mL of sterile water in each well. Each well contained 5 larvae. Compound dilutions were made in DMSO, topped with sterile NYSM broth and applied to each assay well. The final DMSO concentration was 1% in each assay well. Larval mortality was scored for each well at 24-hour timepoints after application.
Heat treatments. Samples were heated in 1.5-mL microfuge tubes in a standard laboratory heat block at the indicated temperature and time.
The EtOAc fraction was redissolved in MeOH and subjected to chromatographic fractionation (FIG. 11C) using preparative reversed-phase HPLC (Phenomenex Luna phenylhexyl, 21.2 mm×15 cm, 5 μm, 20 mL/min, isocratic elution with 80% H2O/MeCN for 2 min followed by gradient elution from 80% H2O/MeCN to 100% MeCN over 30 min then isocratic elution with 100% MeCN for 5 min) to yield 30 fractions. The preparative HPLC fractions (at concentrations of 200 μg/mL and 20 μg/mL) were tested against Aedes aegypti.

Assay [1] has as its system Culex quinquefasciatus larvae. Briefly: whole plant or invertebrate.
Excerpt: as §1
as §2, with “Culex quinquefasciatus” for “Aedes aegypti”, “compounds. First or second instar Culex quinquefasciatus larvae were purchased from Benzon Research, Inc. (Carlisle, PA).” for “compounds.”, “with” for “using second or”, “larvae.” for “larvae, with biological replication.”, “Larvae” for “Larval”

Setting [2] is: read-out: LC50 (representative curve fit).

Broadly, the LC50 is the concentration lethal to half of the exposed cells or organisms.

In brackets after ≈: the same amount, converted by molar mass. Where two headings read alike, the source gives them in different places.

With `c1ccc2[nH]c(Cc3c[nH]c4ccccc34)cc2c1` [3-((1H-indol-2-yl)methyl)-1H-indole], the LC50 with Aedes aegypti larvae (setting [2]) is 5.8 µg/mL (≈ 23.5 µM); in the assay with Aedes aegypti larvae (read-out: mean LC50), 6.3 ± 2.1 µg/mL (≈ 25.6 µM); in assay [1] (setting [2]) it was 1.5 µg/mL (≈ 6.09 µM); in assay [1] (read-out: mean LC50), 0.95 ± 0.75 µg/mL (≈ 3.86 µM).
